In ChEMBL document CHEMBL1201862, “PubChem BioAssay data set” (2004):
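Interpolation was linear, between the two tested concentrations surrounding the appropriate level; five concentrations were tested over 48 hours in 96-well plates. GI50: concentration for 50% inhibition of growth.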 Active and inactive are the calls of the source. No stated cut-off is given here; in the data, active = GI50 up to about 1.1 µM and inactive = higher.

Columns and labels:
Test in all cases: NCI anticancer screen, dose series, 48 h
[1] = test system: SK-MEL-2
[2] = test system: HT-29
[3] = test system: ACHN
[4] = test system: NCI-H23
[5] = test system: OVCAR-8
[6] = test system: SF-268
[7] = test system: LXFL 529
[8] = test system: MDA-MB-231
[9] = test system: UACC-62
[10] = test system: NCI-H226
[11] = test system: HOP-18
[12] = test system: SNB-75
[13] = test system: MDA-MB-435
[14] = test system: DMS-273
[15] = test system: K562
[16] = test system: LOX IMVI
[17] = test system: NCI-H522
[18] = test system: HOP-92
[19] = test system: A498
[20] = test system: T47D
[21] = test system: DLD-1
[22] = test system: CAKI-1
[23] = test system: HL-60
[24] = test system: 786-0
[25] = test system: SK-OV-3
[26] = test system: RPMI-8226
[27] = test system: XF498
[28] = test system: MDA-N
[29] = test system: A549
[30] = test system: SK-MEL-5
[31] = test system: OVCAR-3
[32] = test system: DU-145
[33] = test system: SN12C
[34] = test system: MOLT-4
[35] = test system: SR
[36] = test system: M19-MEL
[37] = test system: RXF 393
[38] = test system: UACC-257
[39] = test system: M14
[40] = test system: COLO 205
[41] = test system: BT-549
[42] = test system: HOP-62
[43] = test system: DMS-114
[44] = test system: SF-295
[45] = test system: SF-539
[46] = test system: SNB-19
[47] = test system: KM-20L2
[48] = test system: RXF 631
[49] = test system: SW-620
[50] = test system: TK-10
[51] = test system: SNB-78
[52] = test system: KM12
[53] = test system: NCI/ADR-RES
[54] = test system: CCRF-CEM
[55] = test system: Malme-3M
[56] = test system: NCI-H460
[57] = test system: SK-MEL-28
[58] = test system: OVCAR-4
[59] = test system: OVCAR-5
[60] = test system: HCT-15
[61] = test system: U-251
[62] = test system: IGROV-1
[63] = test system: MCF7
[64] = test system: HCC 2998
[65] = test system: UO-31
[66] = test system: HCT-116
[67] = test system: EKVX

O=C1N[C@H]2[C@H](O)[C@H](O)[C@@H](O)[C@H](O)[C@@H]2c2cc3c(c(O)c21)OCO3 [PANCRATISTATIN]
GI50 [1]: 33.6 nM (active) | GI50 [2]: 43.9 nM (active) | GI50 [3]: 673 nM (active) | GI50 [4]: 44.5 nM (active) | GI50 [5]: 33.6 nM (active) | GI50 [6]: 39.1 nM (active) | GI50 [7]: 541 nM (active) | GI50 [8]: 34.4 nM (active) | GI50 [9]: 43.6 nM (active) | GI50 [10]: 37.5 nM (active) | GI50 [11]: 59.8 nM (active) | GI50 [12]: 30.1 nM (active) | GI50 [13]: 37.2 nM (active) | GI50 [14]: 82.6 nM (active) | GI50 [15]: 37.3 nM (active) | GI50 [16]: 30.7 nM (active) | GI50 [17]: 32.6 nM (active) | GI50 [18]: 31.6 nM (active) | GI50 [19]: 58.3 nM (active) | GI50 [20]: 28.8 nM (active) | GI50 [21]: 41.5 nM (active) | GI50 [22]: 33.1 nM (active) | GI50 [23]: 36.4 nM (active) | GI50 [24]: 1580 nM (inactive) | GI50 [25]: 48.3 nM (active) | GI50 [26]: 77.8 nM (active) | GI50 [27]: 23.7 nM (active) | GI50 [28]: 37.2 nM (active) | GI50 [29]: 89.3 nM (active) | GI50 [30]: 27.2 nM (active) | GI50 [31]: 37.6 nM (active) | GI50 [32]: 30.6 nM (active) | GI50 [33]: 36.5 nM (active) | GI50 [34]: 30.9 nM (active) | GI50 [35]: 106 nM (active) | GI50 [36]: 38.8 nM (active) | GI50 [37]: 43.4 nM (active) | GI50 [38]: 42.9 nM (active) | GI50 [39]: 262 nM (active) | GI50 [40]: 28.8 nM (active) | GI50 [41]: 49.3 nM (active) | GI50 [42]: 44.9 nM (active) | GI50 [43]: 41.2 nM (active) | GI50 [44]: 46.9 nM (active) | GI50 [45]: 37 nM (active) | GI50 [46]: 30.1 nM (active) | GI50 [47]: 44.5 nM (active) | GI50 [48]: 649 nM (active) | GI50 [49]: 38.6 nM (active) | GI50 [50]: 650 nM (active) | GI50 [51]: 45.2 nM (active) | GI50 [52]: 39.3 nM (active) | GI50 [53]: 62.2 nM (active) | GI50 [54]: 32.4 nM (active) | GI50 [55]: 35.2 nM (active) | GI50 [56]: 45.7 nM (active) | GI50 [57]: 41.4 nM (active) | GI50 [58]: 30.7 nM (active) | GI50 [59]: 144 nM (active) | GI50 [60]: 45 nM | GI50 [61]: 33.9 nM (active) | GI50 [62]: 51.6 nM (active) | GI50 [63]: 36.9 nM (active) | GI50 [64]: 40.3 nM (active) | GI50 [65]: 87.5 nM (active) | GI50 [66]: 29.7 nM (active)

CCCCCCCC(=O)OCC1OC(OC)C(NC(=O)N(CCCl)N=O)C(O)C1O (stereo not given)
GI50 [1]: 17100 nM (inactive) | GI50 [2]: 15000 nM (inactive) | GI50 [3]: 7180 nM (inactive) | GI50 [4]: 8280 nM (inactive) | GI50 [5]: 18200 nM (inactive) | GI50 [6]: 2150 nM (inactive) | GI50 [7]: 16900 nM (inactive) | GI50 [9]: 1860 nM (inactive) | GI50 [10]: 15700 nM (inactive) | GI50 [11]: 18500 nM (inactive) | GI50 [12]: 4720 nM (inactive) | GI50 [14]: 2900 nM (inactive) | GI50 [15]: 12400 nM (inactive) | GI50 [16]: 908 nM (active) | GI50 [17]: 11200 nM (inactive) | GI50 [18]: 1360 nM (inactive) | GI50 [19]: 21500 nM (inactive) | GI50 [21]: 11900 nM (inactive) | GI50 [22]: 9080 nM (inactive) | GI50 [23]: 4140 nM (inactive) | GI50 [24]: 3920 nM (inactive) | GI50 [25]: 28500 nM (inactive) | GI50 [26]: 16300 nM (inactive) | GI50 [27]: 10200 nM (inactive) | GI50 [29]: 9910 nM (inactive) | GI50 [30]: 15100 nM (inactive) | GI50 [31]: 19700 nM (inactive) | GI50 [33]: 7670 nM (inactive) | GI50 [34]: 3050 nM (inactive) | GI50 [35]: 272 nM (active) | GI50 [36]: 17900 nM (inactive) | GI50 [67]: 30600 nM (inactive) | GI50 [37]: 16100 nM (inactive) | GI50 [38]: 16100 nM (inactive) | GI50 [39]: 8410 nM (inactive) | GI50 [40]: 14700 nM (inactive) | GI50 [42]: 4270 nM (inactive) | GI50 [43]: 11900 nM (inactive) | GI50 [44]: 4070 nM (inactive) | GI50 [45]: 2640 nM (inactive) | GI50 [46]: 14500 nM (inactive) | GI50 [47]: 20800 nM (inactive) | GI50 [48]: 2480 nM (inactive) | GI50 [49]: 4170 nM (inactive) | GI50 [50]: 18500 nM (inactive) | GI50 [51]: 22900 nM (inactive) | GI50 [52]: 9890 nM (inactive) | GI50 [54]: 4060 nM (inactive) | GI50 [55]: 13300 nM (inactive) | GI50 [56]: 3460 nM (inactive) | GI50 [57]: 33300 nM (inactive) | GI50 [58]: > 54600 nM (inactive) | GI50 [59]: 26400 nM (inactive) | GI50 [60]: 3270 nM | GI50 [61]: 4910 nM (inactive) | GI50 [62]: 21700 nM (inactive) | GI50 [64]: 14300 nM (inactive) | GI50 [65]: 17600 nM (inactive) | GI50 [66]: 3220 nM (inactive)
